Experiments:
[1] = target: T1, ERRγ (Homo sapiens, UniProt P62508); test: TR-FRET (LanthaScreen) ERRγ binding assay; conditions: Table 1 screening; 2-fold serial dilution from 10 μM; read-out: ERRγ, IC50 (binding inhibition of ERRγ binding activity)
T1 construct: purchased Life Technologies
T1 sequence (P62508 233-457 limits assumed): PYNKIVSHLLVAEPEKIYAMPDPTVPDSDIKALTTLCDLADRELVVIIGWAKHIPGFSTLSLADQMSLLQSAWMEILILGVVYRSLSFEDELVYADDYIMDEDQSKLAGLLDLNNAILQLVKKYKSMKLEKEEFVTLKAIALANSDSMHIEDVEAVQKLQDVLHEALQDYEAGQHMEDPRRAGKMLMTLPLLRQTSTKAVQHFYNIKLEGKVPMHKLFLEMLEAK
Description: Initials creening was conducted using a well established TR-FRET based ERRγ binding assay as described in the Experimental section at a concentration of 10 μM. Serial dilutions of the synthesized compounds were used to calculate IC50 values for the binding affinity with ERRγ.
(§1) ERRγ binding assay was conducted with Lantascreen assay system (Life Technologies, Grand Island, NY, USA), which was based on TR-FRET, followed by manufacturer’s instruction. Briefly, compounds were serially diluted with 2-fold staring from 10 μM and 10 μL of each diluent was added in 384 well plate. Then, GST-conjugated ERRγ LBD (ligand-binding domain) was added to be 5 nM. Next, the mixture of fluorescien-conjugated coactivator PGC1a (final concentration to be 500 nM) and Tb-a-GST antibody (final concentration to be 5 nM) was added. The reaction mixture was incubated at rt in dark state for 1 h.

[2] = target: T2, ERRα (Homo sapiens, UniProt P11474); test: TR-FRET (LanthaScreen) ERRα binding assay; conditions: maximum concentration tested 10 μM
T2 construct: purchased Life Technologies
T2 sequence (P11474 193-421 limits assumed): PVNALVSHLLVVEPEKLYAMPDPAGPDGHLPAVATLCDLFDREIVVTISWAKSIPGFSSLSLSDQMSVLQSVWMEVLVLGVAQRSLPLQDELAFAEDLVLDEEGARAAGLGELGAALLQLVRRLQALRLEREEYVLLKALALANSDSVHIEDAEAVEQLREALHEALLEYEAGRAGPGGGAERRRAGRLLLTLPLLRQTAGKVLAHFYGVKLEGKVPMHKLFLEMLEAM
Description: as §1
(§2) ERRs and ERα binding assay used same assay system as ERRγ’s, Lanthascreen assay system. Therefore, procedure was same as ERRγ binding assay except tested enzymes (ERRα, ERRβ, ERα). Used reference compounds were 4-OHT 1 for ERα and ERRβ binding assay, and XCT790 for ERRα binding assay.

[3] = target: T3, ERRβ (Homo sapiens, UniProt O95718); test: TR-FRET (LanthaScreen) ERRβ binding assay; conditions: maximum concentration tested 10 μM
T3 construct: purchased Life Technologies
T3 sequence (O95718 208-432 limits assumed): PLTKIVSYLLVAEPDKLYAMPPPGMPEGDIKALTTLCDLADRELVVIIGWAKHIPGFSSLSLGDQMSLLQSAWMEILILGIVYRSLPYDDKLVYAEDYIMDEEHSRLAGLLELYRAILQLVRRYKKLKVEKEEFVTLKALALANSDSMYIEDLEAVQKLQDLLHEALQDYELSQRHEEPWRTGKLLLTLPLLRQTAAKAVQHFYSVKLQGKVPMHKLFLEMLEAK
Description: as §1, §2

[4] = target: T4, ERα (Homo sapiens, UniProt P03372); test: TR-FRET (LanthaScreen) ERα binding assay; conditions: maximum concentration tested 10 μM
T4 construct: purchased Life Technologies
T4 sequence (P03372 311-547 limits assumed): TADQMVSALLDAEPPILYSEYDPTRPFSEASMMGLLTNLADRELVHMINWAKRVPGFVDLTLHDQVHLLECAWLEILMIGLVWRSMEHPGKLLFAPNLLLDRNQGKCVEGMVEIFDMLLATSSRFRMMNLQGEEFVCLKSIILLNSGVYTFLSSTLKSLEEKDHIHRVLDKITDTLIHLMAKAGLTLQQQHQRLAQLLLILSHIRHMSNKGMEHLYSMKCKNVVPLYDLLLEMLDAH
Description: as §1, §2

[5] = target: T5, ERRγ (Homo sapiens, UniProt P62508); test: ERRγ functional assay: GAL4-ERRγ luciferase reporter gene in AD293 cells; assay type: cell-based
T5 sequence (P62508 233-458 limits assumed): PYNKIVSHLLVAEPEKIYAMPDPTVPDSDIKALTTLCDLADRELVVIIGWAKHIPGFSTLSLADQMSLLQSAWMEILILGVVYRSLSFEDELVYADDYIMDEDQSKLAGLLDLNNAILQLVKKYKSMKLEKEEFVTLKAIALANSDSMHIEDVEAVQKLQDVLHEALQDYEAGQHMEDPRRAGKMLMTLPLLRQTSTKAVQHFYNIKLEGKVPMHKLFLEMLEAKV
Description: Along with the binding assay campaign, functional activity was determined in order to validate the utility of the binding affinity in a cellular context as described in the Experimental.
Figure 2 Cell based reporter-gene assay screening of 16 analogs ERRγ binding activity in cell was measured by luciferase activity using co-transfection system with GAL4-ERRγ and pFR-luciferase reporter gene.
AD293 cells were cultured in Dulbecco’ modified Eagle medium (DMEM) High glucose supplemented with 0.5% FBS (Hyclone, Logan, UT, USA). After 24 h, culture media was changed with DMEM High glucose containing 10% FBS. DNA constructs, which includes pCMX-Gal4-ERRγ, pFR-luciferase reporter plasmid, pCMV-β-gal were transiently transfected into AD293 cells using TransIT-LT1 transfection reagent (Mirus, Madison, WI, USA) for 24 h. Then, transfected cells were treated with compounds for 24 h and harvested for detection of luciferase activity and β-gal activity. All cells were incubated at 37 °C under 5% CO2 in a humidified incubator [5].

[6] = target: T6, CYP1A2 (Homo sapiens, UniProt P05177); test: CYP inhibition assay, cocktail, human liver microsomes (phenacetin O-deethylase); assay type: in vitro ADME; conditions: 10 μM, activity in presence of inhibitor as % of control
T6 sequence (P05177 1-516): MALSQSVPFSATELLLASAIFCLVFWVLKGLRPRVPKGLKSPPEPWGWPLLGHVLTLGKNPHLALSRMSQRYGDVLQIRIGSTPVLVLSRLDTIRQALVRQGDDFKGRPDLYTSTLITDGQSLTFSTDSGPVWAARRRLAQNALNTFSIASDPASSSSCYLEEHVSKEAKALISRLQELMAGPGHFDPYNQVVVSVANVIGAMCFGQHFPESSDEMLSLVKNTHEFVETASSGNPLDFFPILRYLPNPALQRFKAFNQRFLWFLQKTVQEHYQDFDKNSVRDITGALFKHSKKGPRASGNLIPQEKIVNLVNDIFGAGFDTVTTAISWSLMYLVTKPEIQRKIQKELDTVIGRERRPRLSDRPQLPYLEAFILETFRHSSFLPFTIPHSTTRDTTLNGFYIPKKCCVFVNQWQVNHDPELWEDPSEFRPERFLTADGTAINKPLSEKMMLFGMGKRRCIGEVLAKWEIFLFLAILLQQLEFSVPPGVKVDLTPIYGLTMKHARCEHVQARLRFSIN

[7] = target: CYP2C9 (Homo sapiens, UniProt P11712); test: CYP inhibition assay, cocktail, human liver microsomes (tolbutamide 4-hydroxylase); assay type: in vitro ADME
Sequence of CYP2C9 (P11712 whole entry): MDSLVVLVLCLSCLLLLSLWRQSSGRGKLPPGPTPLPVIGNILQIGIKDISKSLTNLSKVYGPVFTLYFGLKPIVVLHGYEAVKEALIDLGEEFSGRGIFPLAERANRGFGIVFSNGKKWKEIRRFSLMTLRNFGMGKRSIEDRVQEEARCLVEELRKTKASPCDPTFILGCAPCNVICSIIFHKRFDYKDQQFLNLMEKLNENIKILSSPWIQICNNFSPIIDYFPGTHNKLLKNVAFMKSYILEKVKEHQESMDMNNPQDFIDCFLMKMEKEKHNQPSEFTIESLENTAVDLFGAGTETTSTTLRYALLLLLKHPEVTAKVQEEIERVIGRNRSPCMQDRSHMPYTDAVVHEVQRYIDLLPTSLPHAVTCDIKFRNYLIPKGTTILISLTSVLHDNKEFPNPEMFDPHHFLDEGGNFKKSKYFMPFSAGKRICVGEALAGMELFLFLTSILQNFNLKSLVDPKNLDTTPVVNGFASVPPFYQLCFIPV

[8] = target: CYP2C19 (Homo sapiens, UniProt P33261); test: CYP inhibition assay, cocktail, human liver microsomes (S-mephenytoin 4-hydroxylase); assay type: in vitro ADME; conditions: 10 μM, activity in presence of inhibitor as % of control
Sequence of CYP2C19 (P33261 whole entry): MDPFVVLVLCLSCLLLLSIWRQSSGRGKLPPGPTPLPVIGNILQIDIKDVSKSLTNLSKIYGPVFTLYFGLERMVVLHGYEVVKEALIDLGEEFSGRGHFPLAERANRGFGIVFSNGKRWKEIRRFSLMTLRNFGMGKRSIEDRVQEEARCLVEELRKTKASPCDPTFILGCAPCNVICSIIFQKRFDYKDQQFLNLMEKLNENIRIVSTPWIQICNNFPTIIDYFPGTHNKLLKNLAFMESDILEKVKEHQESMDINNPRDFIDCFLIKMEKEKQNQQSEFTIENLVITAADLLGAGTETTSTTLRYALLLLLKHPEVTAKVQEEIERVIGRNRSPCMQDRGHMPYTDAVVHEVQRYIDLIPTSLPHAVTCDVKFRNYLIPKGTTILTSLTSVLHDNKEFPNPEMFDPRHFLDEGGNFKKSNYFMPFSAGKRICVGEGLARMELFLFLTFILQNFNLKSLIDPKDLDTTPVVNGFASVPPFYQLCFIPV

[9] = target: CYP2D6 (Homo sapiens, UniProt P10635); test: CYP inhibition assay, cocktail, human liver microsomes (dextromethorphan O-demethylase); assay type: in vitro ADME; conditions: 10 μM, activity in presence of inhibitor as % of control
Sequence of CYP2D6 (P10635 whole entry): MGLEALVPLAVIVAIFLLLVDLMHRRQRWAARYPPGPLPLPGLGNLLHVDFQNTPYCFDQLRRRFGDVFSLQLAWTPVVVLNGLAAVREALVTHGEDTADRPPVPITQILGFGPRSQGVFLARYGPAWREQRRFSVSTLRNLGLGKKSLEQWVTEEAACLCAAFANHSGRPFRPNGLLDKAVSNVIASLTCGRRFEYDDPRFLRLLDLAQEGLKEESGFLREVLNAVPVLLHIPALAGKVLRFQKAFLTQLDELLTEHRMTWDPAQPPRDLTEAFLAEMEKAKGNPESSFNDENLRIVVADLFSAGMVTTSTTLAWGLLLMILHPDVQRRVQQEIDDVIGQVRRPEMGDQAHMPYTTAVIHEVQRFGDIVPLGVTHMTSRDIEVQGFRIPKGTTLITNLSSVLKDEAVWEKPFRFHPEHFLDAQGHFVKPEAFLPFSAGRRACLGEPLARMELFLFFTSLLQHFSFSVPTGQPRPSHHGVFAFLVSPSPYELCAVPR

[10] = tested on: CYP3A; test: CYP inhibition assay, cocktail, human liver microsomes (midazolam 1'-hydroxylase); assay type: in vitro ADME; conditions: 10 μM, activity in presence of inhibitor as % of control
[11] = target: hERG channel (Homo sapiens, UniProt Q12809); test: hERG channel binding assay (predictor hERG fluorescence polarization)
Sequence of hERG channel (Q12809 whole entry): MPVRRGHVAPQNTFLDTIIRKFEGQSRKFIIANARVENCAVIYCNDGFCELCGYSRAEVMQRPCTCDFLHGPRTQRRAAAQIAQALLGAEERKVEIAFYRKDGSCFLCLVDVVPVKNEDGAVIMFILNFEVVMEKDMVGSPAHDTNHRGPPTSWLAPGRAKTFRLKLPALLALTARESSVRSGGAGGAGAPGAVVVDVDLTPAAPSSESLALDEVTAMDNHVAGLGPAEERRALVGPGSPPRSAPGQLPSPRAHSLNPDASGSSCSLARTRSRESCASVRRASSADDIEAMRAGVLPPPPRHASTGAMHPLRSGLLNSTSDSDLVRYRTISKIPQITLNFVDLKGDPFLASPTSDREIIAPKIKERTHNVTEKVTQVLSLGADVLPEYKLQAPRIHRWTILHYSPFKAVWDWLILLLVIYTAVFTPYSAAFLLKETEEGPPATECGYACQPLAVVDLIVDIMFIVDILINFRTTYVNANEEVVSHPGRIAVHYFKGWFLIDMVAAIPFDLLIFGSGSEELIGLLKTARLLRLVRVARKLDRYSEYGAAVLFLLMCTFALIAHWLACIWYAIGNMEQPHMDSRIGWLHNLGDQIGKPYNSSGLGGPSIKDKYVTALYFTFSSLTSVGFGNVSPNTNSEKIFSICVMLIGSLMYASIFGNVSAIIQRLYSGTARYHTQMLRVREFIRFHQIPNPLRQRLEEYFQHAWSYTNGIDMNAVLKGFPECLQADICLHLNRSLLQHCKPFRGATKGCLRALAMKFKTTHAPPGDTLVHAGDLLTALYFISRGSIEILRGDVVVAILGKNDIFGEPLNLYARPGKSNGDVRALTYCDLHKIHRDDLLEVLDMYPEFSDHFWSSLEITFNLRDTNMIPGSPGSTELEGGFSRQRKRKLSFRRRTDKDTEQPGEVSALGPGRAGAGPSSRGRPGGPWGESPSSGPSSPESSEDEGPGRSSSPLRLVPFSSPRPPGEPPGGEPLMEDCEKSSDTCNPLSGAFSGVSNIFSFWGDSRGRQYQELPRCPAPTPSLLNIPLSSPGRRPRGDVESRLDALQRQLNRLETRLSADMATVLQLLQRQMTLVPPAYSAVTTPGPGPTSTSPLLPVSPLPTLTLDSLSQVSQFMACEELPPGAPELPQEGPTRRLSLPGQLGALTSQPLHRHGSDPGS
Description: hERG channel binding assay was performed using predictor hERG fluorescence polarization assay (Cat.No. PV5365, Invitrogen, Grand Island, NY, USA) according to the manufacturer’s instructions. […] Fluorescence intensity (Excitation at 530 nm, Emission at 590 nm) was measured using a multi-mode microplate reader Synergy Neo (Biotek, Winooski, VT, USA).

With CN(C)CCOc1ccc(/C(=C(/CCCO)c2ccc3cnn(C)c3c2)c2ccc(O)cc2)cc1 [Compound 15g, (Z)-4-(1-(4-(2-(Dimethylamino)ethoxy)phenyl)-5-hydroxy-2-(1-methyl-1H-indazol-6-yl)pent-1-en-1-yl)phenol] as the compound, how does the IC50 [1] read?
Its IC50 is 0.44 µM.

What about the “Binding Assay, IC50, ERRα” value [2] of the same compound?
Its value is “no observable affinity”.

What about the IC50 [2] of the same compound?
Its IC50 is over 10 µM.

And the “Binding Assay, IC50, ERRβ” value [3]?
Its value is “no observable affinity”.

What about the IC50 [3] of the same compound?
Its IC50 is over 10 µM.

And the IC50 [4]?
Its IC50 is over 10 µM.

And the “ERRγ Functional Assay at 10 μM (% of Control)” value ([5]; 10 μM, AD293 cells, 24 h treatment, luciferase activity)?
The value was 5.4 % of Control.

What about the “ERRγ functional activity in the cellular system (in words)” value ([5]; 10 μM, reporter-gene assay, compared with control ligand 4) of the same compound?
Its value is “comparable regression of the ERRγ transcriptional activity”.

And the inhibition at 10 µM ([5]; AD293, 24 h, screening concentration of 10 μM, read-out: transcriptional repression)?
Its inhibition at 10 µM is 95%.

What about the “CYP Inhibition (% of Control), 1A2” value [6] of the same compound?
The value was >100 % of Control.

And the “CYP Inhibition (% of Control), 2C9” value ([7]; 10 μM, human liver microsomes, activity in presence of inhibitor as % of control)?
Its value is 83 % of Control.

What about the “inhibition of the CYP 2C9 subtype” value ([7]; at a concentration of 10 μM) of the same compound?
Its value is 17%.

What about the “CYP Inhibition (% of Control), 2C19” value [8] of the same compound?
The value was 95 % of Control.

What about the “CYP Inhibition (% of Control), 2D6” value [9] of the same compound?
Its value is 99 % of Control.

What about the “CYP Inhibition (% of Control), 3A4” value [10] of the same compound?
The value was 88 % of Control.

What about the IC50 [11] of the same compound?
The IC50 was over 30 µM.
